# From patent US10406191B2, “Compounds, extracts and methods from chinese medicinal herb sophora flavescens that inhibit airway contraction” (priority 2013, dated 2019)
# “Also recorded” adds a separate entry of the source. Counter-ions that a name gives are not always drawn.
# Key:
# [1] = test system: airway smooth muscle (ASM) in tracheal rings from OVA sensitized/challenged mice; experiment: Inhibition of acetylcholine-induced ASM contraction in tracheal rings (ex vivo myography, 30 min pretreatment); parameters: species or system BALB/c mice; conditions: for ASM contraction to acetylcholine: isolated compound at 6.0 μg/ml, FIG. 6A/6B; for ASM contraction to acetylcholine / Ach-induced contraction (10-4 M Ach, percent of 60 mM KCL): 30 min pretreatment; for Ach-induced contraction (10-4 M Ach, percent of 60 mM KCL): 10 μg/ml (Matrine 40 μM, Sophocarpine 40 μM, Oxymatrine 37 μM); for Ach-induced contraction (10-4 M Ach, percent of 60 mM KCL) / relative potency among the matrine type alkaloids: FIGS. 12, 13; for relative potency among the matrine type alkaloids: 10 μg/ml
# Experimental: To determine which herbal constituents in ASHMI™ have a direct inhibitory effect on ASM contraction, an asthmatic mouse model was induced by ovalbumin (OVA) sensitization and challenge as described previously (Zhang et al., 2010). Tracheal rings from asthmatic mice were treated with an aq. extract of ASHMI™ (100 μg/ml), or individual herb aq. extracts, G. lucidum (35 μg/ml), S. flavescens (45 μg/ml) and G. uralenisis (20 μg/ml), for 30 min prior to ex vivo acetylcholine provocation. The ASHMI™ concentration was based on our previous publication (Zhang et al., 2010). Concentrations of individual herb extracts were equivalent to their individual concentrations in ASHMI™.
# Balb/c mice were sensitized by intraperitoneal (i.p.) injection of 200 μg OVA plus 2 mg of aluminum hydroxide (alum) in 400 μl of PBS on days 0 and 7. Mice were challenged intratracheally (i.t.) with 100 μg of OVA in 50 μl of PBS weekly for 2 weeks (days 14 and 21). Mice were challenged i.t. once daily with 100 μg of OVA (50 μl) on 2 consecutive days (days 28 and 29) 48 hr before sacrifice and tissue harvesting.
# Forty-eight hrs after the last i.t. OVA challenge, mice were sacrificed and tracheas were excised and cut into 3 tracheal rings as previously described. Each tracheal ring was attached to a pair of mounting pins in the organ chamber of a Myograph System Model 610M system (AD Instruments, Denver, Colo.) and bathed in a chamber containing physiological salt solution (PSS (In g/L—NaCl: 6.95, KCl: 0.35, MgSO4.7H2O: 0.28, KH2PO4: 0.1561, CaCl2.2H2O: 0.36, NaHCO3: 2.1, EDTA: 0.01, Glucose: 1.09, pH=7.4). All chambers were maintained at 37° C. and were continuously bubbled with 100% 02. The change of tracheal ring tension was recorded by Power Lab Chart recording software (AD Instruments). After incubation at 37° C. for 15 min at baseline tension, passive tension applied to the tracheal ring was adjusted to 1.00 mN. Following stabilization of passive tension, tracheal rings were contracted using 60 mM KCl twice, to assess ASM contractility. Tracheal rings were washed with PSS buffer 3 times and allowed to rest at 1.00 mN for 30 min after each stimulation. The individual compounds as indicated in FIG. 14 were dissolved in DMSO and then re-suspended in PBS (DMSO <0.1%). Each drug was added to the chamber at the concentrations indicated and the pre-incubation time was 30 min. Tracheal rings were then contracted with incremental doses of acetylcholine (from 10^-8 M to 10^-4 M). PBS (vehicle) treatment was used as control.
# [2] = test system: tracheal tissue (rings); experiment: Tracheal ring viability: contractile response to KCl after washout; parameters: species or system mouse; conditions: 10 μg/ml
# Experimental: FIG. 12. Representative real time tracing of murine tracheal ring contractions. Rings were first stimulated with 60 mM KCL to assess contractile potential. Compounds (Matrine (40 μM), Oxymatrine (37 μM), sophocarpine (40 μM) or PSS (vehicle) were added 30 minutes prior to stimulation with 10^-4 M Ach. Ring viability was tested 90 minutes after Ach washout.
# We first generated a methylene chloride (MC) extract from an aq. extract of S. flavescens to obtain a flavonoid rich extract (designated MC extract, FIG. 2). […] We next generated 5 sub-fractions (MC-F1, 2, 3, 4 and 5) using preparative HPLC and tested each at 6.0 μg/ml. […] The inhibition of ASM contraction by MC-F1 was concentration-dependent (FIG. 4B) and non-toxic as contractile responses to KCl were present after buffer washings (FIG. 4C).
# Having observed that Fraction 3 of S. flavescens was a potent inhibitor of Ach-stimulated tracheal contraction we tested major compounds present in this fraction in myography experiments. According to investigations using mass spectrometric techniques, the major compounds identified in SF Fraction 3 were the matrine type alkaloids-Matrine, Oxymatrine and Sophocarpine.
# [3] = test system: acetylcholine pre-contracted sensitized murine tracheal rings (ASM); experiment: Relaxation of acetylcholine pre-contracted tracheal rings; parameters: species or system mouse; conditions: for effect of co-incubation with β2-AR antagonist ICI 118,551 on relaxation: FIG. 7A/7B
# Experimental: FIGS. 7A-7C. Relaxation effects of trifolirhizin or the β2-AR agonist fenoterol on acetylcholine pre-contracted ASM. (A). The relaxation effect of trifolirhizin on acetylcholine-stimulated tracheal rings with or without ICI 118,551 (ICI). (B). The relaxation effect of the β2-AR agonist fenoterol on acetylcholine-contracted tracheal rings with or without ICI 118,551; Relaxation is expressed as the percent of residual contractile tone remaining at 15 min after trifolirhizin or fenoterol addition. (C). Representative myography tracings of relaxation experiment using fenoterol (upper tracing), PBS control (middle tracing) or trifolirhizin- (lower tracing) treated sensitized mouse tracheal rings (***, p≤0.001 compared to PBS control). Note the magnitude of total relaxation achieved with trifolirhizin compared to the β2-AR agonist fenoterol.
# The primary therapy for acute constriction of airway smooth muscle is β2-AR agonists which are inhaled for the acute relaxation of hyperresponsive airway smooth muscle. We performed studies with trifolirhizin to determine whether it could relax pre-contracted airway smooth muscle and how the magnitude of relaxation compared to a classic β2-AR agonist fenoterol. In order to investigate the relaxation effect of trifolirhizin on ASM, we tested this isolated compound on acetylcholine pre-contracted sensitized murine tracheal rings. […] The maximal relaxation was 85% of the initial contractile tone at a trifolirhzin concentration of 20 μg/ml (FIG. 7A). In parallel studies the β2-AR agonist fenoterol only achieved 25% relaxation even at the highest concentration tested (10^-5 M).
# [4] = test system: airway resistance in response to methacholine; experiment: Airway resistance to nebulized methacholine, forced oscillation technique (Flexivent); type: in vivo, male A/J mice; conditions: nebulized 25 ul of 60 ug/ml, 15 minutes before nebulized methacholine; N=3; FIG. 15
# Experimental: FIG. 15: Airway resistance in male A/J 20 g mice pretreated with nebulization of vehicle (25 ul 0.3% DMSO) or trifolirhizin (25 ul of 60 ug/ml) 15 minutes before nebulized methacholine as measured by the forced oscillation technique (Flexivent, Scireq). N=3.
smiles,measurement,setting,value
"COc1ccc(-c2coc3cc(O)ccc3c2=O)cc1O [3′,7-dihydroxy-4′-methoxy-isoflavone]",ASM contraction to acetylcholine,[1],had no effect on ASM contraction
"C[C@@H]1C[C@H]2[C@@H]3CCC4=CC(=O)C=C[C@]4(C)[C@@]3(F)[C@@H](O)C[C@]2(C)[C@@]1(O)C(=O)CO [Dexamethasone, dexamethasone, reference compound]",acetylcholine-induced ASM contractions,"[1]; 10 μM acute pretreatment, FIG. 6D",did not inhibit
O=C1CCC[C@@H]2[C@H]3CCCN4CCC[C@@H](CN12)[C@@H]34 [Matrine],effect of Indomethacin on the suppressive effect on tracheal contractility,[1],inhibited by Indomethacin
same,"Ach-induced contraction (10-4 M Ach, percent of 60 mM KCL)",[1],inhibited Ach-induced contraction
same,relative potency among the matrine type alkaloids,[1],most potent; also recorded: more effective than Oxymatrine
same,toxicity to tracheal tissue (response to KCL 90 minutes after washout),[2],did not exhibit toxicity to tracheal tissue
O=C1CCC[C@@H]2[C@H]3CCC[N+]4([O-])CCC[C@@H](CN12)[C@@H]34 (stereo partly shown) [Oxymatrine],effect of Indomethacin on the suppressive effect on tracheal contractility,[1],inhibited by Indomethacin
same,"Ach-induced contraction (10-4 M Ach, percent of 60 mM KCL)",[1],inhibited Ach-induced contraction
same,relative potency among the matrine type alkaloids,[1],weakest inhibitor of contraction
O=C1C=CC[C@@H]2[C@H]3CCCN4CCC[C@@H](CN12)[C@@H]34 [Sophocarpine],effect of Indomethacin on the suppressive effect on tracheal contractility,[1],inhibited by Indomethacin
same,"Ach-induced contraction (10-4 M Ach, percent of 60 mM KCL)",[1],inhibited Ach-induced contraction
same,relative potency among the matrine type alkaloids,[1],more effective than Oxymatrine
"CC(Cc1ccc(O)cc1)NCC(O)c1cc(O)cc(O)c1 (stereo not shown) [fenoterol, fenoterol hydrobromide, reference compound]","effect of co-incubation with β2-AR antagonist ICI 118,551 on relaxation",[3],completely blocked
same,relaxation achieved,"[3]; highest concentration tested (10^-5 M), parallel studies, FIG. 7B",25%
same,time course of relaxation effect,[3]; increasing time of incubation,slowly lost its effect
OC[C@H]1O[C@@H](Oc2ccc3c(c2)OC[C@H]2c4cc5c(cc4O[C@@H]32)OCO5)[C@H](O)[C@@H](O)[C@@H]1O [trifolirhizin],acetylcholine-induced contraction,"[1]; concentrations lower than 6.0 μg/ml, FIG. 6B",not at lower concentrations
same,ASM contraction to acetylcholine,[1],significantly inhibited acetylcholine-induced contraction
same,"effect of β2-AR antagonist ICI 118,551 on the compound's blockade of acetylcholine contraction","[1]; trifolirhizin 6.0 μg/ml with ICI 118,551 150 μM, 30 min preincubation, FIG. 6C",had no effect; also recorded: did not block the effect
same,maximal relaxation (of the initial contractile tone),"[3]; 20 μg/ml, 10^-5 M acetylcholine pre-contraction, FIG. 7A",85%
same,"effect of co-incubation with β2-AR antagonist ICI 118,551 on relaxation",[3],without effect
same,"relaxation of pre-contracted tracheal rings, dose dependence","[3]; rings stimulated by 10^-5 M acetylcholine, FIG. 7A",dose-dependent manner
same,airway resistance in response to methacholine,[4],significantly attenuated increased airway resistance
